Assay results as given in patent US5707990A, “2-substituted amino and thio alkyl benzoxazine antimicrobial agents” (Ortho Pharmaceutical Corporation, priority 1996, dated 1998).

Target: T1, Kinase A and SpoOF (Bacillus subtilis, UniProt P16497)
T1 construct: made in house; host or cells: recombinant E. coli
T1 sequence (P16497 1-606): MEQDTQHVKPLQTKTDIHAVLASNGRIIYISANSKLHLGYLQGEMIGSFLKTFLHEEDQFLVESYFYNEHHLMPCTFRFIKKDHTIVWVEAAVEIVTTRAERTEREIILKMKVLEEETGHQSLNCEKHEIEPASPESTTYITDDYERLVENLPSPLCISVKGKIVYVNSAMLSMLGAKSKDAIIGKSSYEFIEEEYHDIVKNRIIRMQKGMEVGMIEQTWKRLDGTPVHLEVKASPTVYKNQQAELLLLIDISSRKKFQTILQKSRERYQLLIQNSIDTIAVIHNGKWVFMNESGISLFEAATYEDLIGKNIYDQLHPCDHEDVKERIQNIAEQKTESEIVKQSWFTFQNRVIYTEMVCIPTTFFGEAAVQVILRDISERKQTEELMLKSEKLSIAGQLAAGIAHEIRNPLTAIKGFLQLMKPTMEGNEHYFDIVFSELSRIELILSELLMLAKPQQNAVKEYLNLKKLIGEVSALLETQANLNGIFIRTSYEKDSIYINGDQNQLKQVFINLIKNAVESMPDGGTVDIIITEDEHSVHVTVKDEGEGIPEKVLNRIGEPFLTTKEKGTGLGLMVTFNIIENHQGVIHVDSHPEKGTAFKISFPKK
Experiment: Autophosphorylation of Kinase A and Transphosphorylation of SpoOF Assay (HPK in vitro assay)
Type: biochemical
Settings: [32P]ATP, gel/phosphoimager, inhibitor concentrations from 1 to 500 μM, IC50 of less than 1000 μM considered active
Description: Autophosphorylation of Kinase A and Transphosphorylation of SpoOF Assay
To study the effect of the compounds of the present invention on the signal transduction process in bacteria, the inhibiting effect of the compounds on the sporulation operon proteins Kinase A and SpoOF was examined. Specifically, the inhibition of autophosphorylation of Kinase A and the transphosphorylation of SpoOF was determined in the following assays. The SpoOF response regulator is the primary substrate for phosphorylation by the protein kinase, Kin A, involved in the sporulation process in bacteria. See D. Burbulys, K. A. Trach, J. A. Hoch, Cell, 64, 545-552 (1991 ). SpoOF and KinA were prepared from recombinant E. coli overexpressing the proteins (J. Cavanagh et al, Amino Adds, 6, 131-140 (1994) and references therein).
The following stock reagents were either prepared and used promptly or stored at the indicated temperature:
8 X Salts: 2M KCl (5 mL), 1M MgCl2 ([…]), 1M CaCl2 ([…]), 10 mg/mL phenylmethylsulfonyl fluoride ([…]), 1M dithioreitol (50 mL), 0.25M Na2 EDTA (32 mL) and H2 O 3.82 mL (-20° C.)
5X Loading Dye: 0.5M TRIS-HCl-pH 6.8 (7.5 mL), 10% SDS (2 mL) 0.1% bromophenol blue (0.5 mL), 100% glycerol (3 mL) and 12.5M 2-mercaptoethanol (0.3 mL)
1-1.3 mg/mL KinA: 15 mM TRIS-HCl, pH 8.0, 6 mM KCl; 4 mM 2-mercaptoethanol;40% glycerol (-20° C.)
1 mg/mL SpoOF: 17.5 mM TRIS-HCl, pH 8.0; 0.7 mM KCl; 0.7 mM MgCl2; 0.7 mM CaCl2; 5 mM 2-mercaptoethanol; 30% Glycerol (-20° C.)
5% Stacking Gel: 40% 29:1 acrylamide:bis acrylamide (1.25 mL), 0.5M TRIS-HCl, pH 6.8 (2.5 mL), 10% SDS (0.1 mL), D-H2 O (6.15 mL) 10% ammonium persulfate (100 mL) and TEMED (25 mL)
SDS Running Buffer: TRIS-BASE (3.02 g), glycine (14.4 g) SDS (1 g), D-H2 O (to 1 L)
The reaction mixture was prepared from 8X Salts (87 μL), 1M TRIS, pH 8 (118 μL), 50% glycerol (63 μL), SpoOF (14.1 μL) and KinA (7.0 μL). Microcentrifuge tubes were charged with the reaction mixture (18.5 μL) and a 1.0 mM solution of the test compound in 5% DMSO (18.5 μL), and incubated for 15 min on ice. 100 mM ATP solution (3.0 μl, containing 625 μCi [^32 P]ATP) was added, and the mixture left for 10 minutes at room temperature. The reaction was quenched with 5X loading dye (10 μL per tube) and the samples were loaded on a prepared 5% Stacking Gel, or stored on dry ice until ready for use. The prepared wells were filled with SDS Running Buffer, samples were loaded into the wells, and 80 volts were applied to the gel until the dye front reached the bottom of the stacking gel. The voltage was then increased to 250 volts until electrophoresis was complete. Radioactive bands in the gel corresponding to phosphorylated KinA and SpoOF were imaged and quantitated with a phosphoimager.
If either enzyme was inhibited (as evidenced by the absence of labelled protein in the developed gel), an IC50 was calculated by running the assay with a range of inhibitor concentrations from 1 to 500 μM. After electrophoresis of the reaction mixtures, percent inhibition was determined by measuring the concentration of radioactive phosphorus with a phosphoimager and calculating the values using a software program (BioRad Molecular Analyst). IC50 values of less than 1000 μM are considered active.

IC50 | Compound
80 µM | N=C(N)NCCC1Oc2ccc(C(F)(F)F)cc2N(Cc2cccc(Cl)c2)C1=O (stereo not drawn) [Example 18]
52 µM | Cc1ccc2c(c1)N(Cc1cccc(Cl)c1)C(=O)C(CCNC(=N)N)O2 (stereo not drawn) [Example 19]
344 µM | N=C(N)NCCC1Oc2cccnc2N(Cc2cccc(Cl)c2)C1=O (stereo not drawn) [Example 20]
325 µM | N=C(N)NCCC1Oc2ccccc2N(Cc2ccccc2Cl)C1=O (stereo not drawn) [Example 22]
182 µM | N=C(N)NCCC1Oc2cc([N+](=O)[O-])ccc2N(Cc2cccc(Cl)c2)C1=O (stereo not drawn) [Example 23]
274 µM | O=C1C(CCSC(=S)N2CCCC2)Oc2ccccc2N1Cc1ccccc1Cl (stereo not drawn) [Example 25]
